Values of other authors in patent publication US8883207B2, “Controlled release carvedilol formulation” (TSH Biopharm Corporation Ltd., priority 2009, dated 2014).
Read-outs that look alike come from different tables or passages of the source.

Tests used:
[1] = not given; remark: listed apart in the source

COc1ccccc1OCCNCC(O)COc1cccc2[nH]c3ccccc3c12 (racemic) [carvedilol, ((±)1-(carbazol-4-yloxy-3-[[2-(o-methoxyphenoxy)ethyl]-amino]-2-propanol)]
solubility in gastric fluid (gastric fluid (simulated, TS, pH 1.1)): low solubility | solubility in intestinal fluid (intestinal fluid (simulated, TS without pancreatin, pH 7.5)): low solubility | solubility in water (water): low solubility | relative absorption ([1]; colon): 7% | relative absorption ([1]; ileum): 28% | relative absorption ([1]; jejunum): 56%
